These results are taken from patent US20240366624A1, “METHODS AND COMPOSITIONS FOR TREATING THROMBOTIC DISEASE” (Washington University, priority 2023, published 2024).

Molecules are shown by their SMILES. Entries after “also recorded” stand apart in the source; their conditions may differ.

Assay [1] deals with T1, MAO-A (monoamine oxidase A) (Homo sapiens, UniProt P21397).
T1 sequence (P21397 1-527): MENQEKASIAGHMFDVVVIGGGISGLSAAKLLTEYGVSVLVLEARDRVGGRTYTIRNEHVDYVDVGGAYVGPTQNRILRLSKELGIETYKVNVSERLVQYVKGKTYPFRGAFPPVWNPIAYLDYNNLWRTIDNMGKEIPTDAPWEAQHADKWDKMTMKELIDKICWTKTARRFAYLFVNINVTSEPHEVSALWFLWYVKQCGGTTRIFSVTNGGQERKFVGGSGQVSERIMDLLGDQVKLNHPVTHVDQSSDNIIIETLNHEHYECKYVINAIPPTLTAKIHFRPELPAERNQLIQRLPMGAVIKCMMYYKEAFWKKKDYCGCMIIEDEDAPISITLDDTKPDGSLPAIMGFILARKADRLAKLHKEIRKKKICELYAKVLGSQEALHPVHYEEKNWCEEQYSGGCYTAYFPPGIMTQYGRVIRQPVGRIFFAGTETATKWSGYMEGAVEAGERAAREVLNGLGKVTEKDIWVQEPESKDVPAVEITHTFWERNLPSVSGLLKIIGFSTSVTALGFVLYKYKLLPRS
In words: MAO-A activity assay. In kind it is biochemical.

The next assay deals with WT (C57BL/6) mice. In words: Transient middle cerebral artery occlusion (tMCAO) ischemic stroke model. In kind it is in vivo, mouse. The following applies: single iv 5 μg/g BW after tMCAO, 23 hours later. The procedure:
FIG. 19(A-Q) is an exemplary embodiment of B12-5 having an antithrombotic effect without prolonging tail bleeding times in mice in accordance with the present disclosure. FIG. 19(A-C): Ex vivo effects of B12-5. Wild type (WT; C57BL/6) mice were treated with intravenous injection of vehicle (20% polyethylene glycol [PEG]+3% dimethyl sulfoxide [DMSO]) or B12-5 (5 μg/g body weight [BW]). One hour later, blood was drawn, followed by isolating platelets. P-selectin exposure (FIG. 19A) and αIIbβ3 integrin activation (FIG. 19B) were assessed in flow cytometry. FIG. 19C: Platelet aggregation was measured after treatment with 0.025 U/mL thrombin. The data represent the mean±SD (n=4). FIG. 19D: The plasma levels of B12-5 were analyzed by liquid chromatography-tandem mass spectrometry (LC-MS/MS) after intravenous injection of the compound (5 μg/g BW) into WT mice and quantified by comparison with a standard curve of B12-5 (mean±SD, n=3). FIG. 19E and FIG. 19F: After laser-induced cremaster arteriolar injury, intravital microscopy was conducted with WT mice pretreated with intravenous injection of saline, eptifibatide (5 μg/g BW), vehicle, or B12-5 (5 μg/g BW). The median integrated fluorescence intensities of anti-CD42c (F platelet) and anti-fibrin (F fibrin) antibodies (n=37-42 arterioles in 6 mice per group). Quantification of the antibody signal at a different time point after laser injury. FIG. 19G: Comparison of B12-5 (5 μg/g BW) with eptifibatide (5 μg/g BW) and their respective controls in inhibiting FeCl3-induced carotid artery thrombosis in WT mice. FIG. 19H and FIG. 19I: WT mice were treated with intravenous injection of vehicle control, eptifibatide (5 μg/g BW), or B12-5 (5 μg/g BW). Thirty minutes later, tail bleeding times and Hb contents were measured after amputation of the tail tip. Bars represent the median value (FIG. 19(E-1)). FIG. 19J and FIG. 19M: WT control and Ero1α conditional knockout (CKO) and knockout (KO) mice were subjected to transient middle cerebral artery occlusion (tMCAO). Twenty-three hours later, neurological deficits were assessed by the Bederson score and grip test, and infarct volume was measured as described in Methods. FIG. 19N through FIG. 19Q: WT mice were subjected to tMCAO and then treated with saline, vehicle, or B12-5 (5 μg/g BW). Twenty-three hours later, the neurological deficit and infarct volume were measured as described above. FIG. 19K and FIG. 19O: The data represent the mean±SD (n=7-8). FIG. 19L, FIG. 19M, FIG. 19P, and FIG. 19Q: The bar indicates the median with interquartile range. P values determined by unpaired Student t test (FIG. 19(A-C), FIG. 19K, and FIG. 19O) or Mann-Whitney U test (FIG. 19(E-1), FIG. 19L, FIG. 19M, FIG. 19P, and FIG. 19Q). […]

Another assay concerns human platelets. In words: Platelet aggregation, human platelets. In kind it is cell-based. The following applies: 3 to 10 μM. On the procedure: FIG. 9(A-C) is an exemplary embodiment of EN460 inhibiting thrombin-induced aggregation of mouse and human platelets in accordance with the present disclosure. (A) Human (FIG. 9A), WT (FIG. 9B), and Ero1α-null (FIG. 9C) platelets were pretreated with EN460, an ERO1α inhibitor, at 1, 3, or 10 μM, and treated with 0.025 U/ml thrombin to induce platelet aggregation. The data represent the mean±SD (n=3). P values determined by ANOVA and Dunnett's test (FIG. 9(A-B)) or Student's t-test (FIG. 9C).
FIG. 10(A-E) is an exemplary embodiment of 15E9 not affecting platelet activation and aggregation in accordance with the present disclosure. Mouse platelets were treated with 0.02-0.03 (FIG. 10A P-selectin, FIG. 10B aIIbβ3) or 0.025 U/ml thrombin (FIG. 10C) in the presence of 10 μg/ml mouse IgG2a (IgG2a) or a blocking anti-ERO1α antibody (15E9). Flow cytometry (FIG. 10(A-B)) and aggregation (FIG. 10C) assays were performed. FIG. 10D: Human platelets were treated with 0.025 U/ml thrombin in the presence of mouse IgG2a (mIgG2a) or 10 μg/ml 15E9 and 16B6, followed by measuring aggregation. FIG. 10E: WT and Ero1α null platelets were treated with 10 μg/ml mouse IgG1 (mIgG1) or a blocking anti-PDI antibody (BD34), followed by measuring aggregation induced by 0.025 U/ml thrombin. The data represent the mean±SD (n=3). P values determined by unpaired Student's t-test (vs. mIgG1).

For assay [2] the following is noted: from studies; cited from earlier work.

For the molecule `O=C(CSc1nc(O)cc(O)n1)N1c2ccccc2Sc2ccccc21` [B12-5], the “effect on MAO-A activity” value in assay [1] (10 μM) is listed as “without affecting”. The “inhibition of MAO-A activity” value in assay [1] (30 μM) turned out to be 30%. In assay [1] (100 μM), the “MAO-A inhibition at 100 μM (%)” value was 50.7 ± 9%. In the assay on WT (C57BL/6) mice, the infarct volume entry is on record as “significantly reduced” and the “neurological deficits (Bederson score, grip test)” value is “ameliorated”. In the assay with WT (C57BL/6) mice (listed as B112-5), the infarct volume entry is listed as “significantly reduces; also recorded: reduced” and the “neurological deficits (Bederson score, grip test)” value was “improves”.
For the molecule `O=C(O)c1cc(N2N=C(C(F)(F)F)/C(=C/c3ccc(-c4ccccc4)o3)C2=O)ccc1Cl` [EN460], in the assay on human platelets, the thrombin-induced aggregation entry is “abrogated”. In assay [2], the thiol-reacting activity entry is reported as “has thiol-reacting activity”.
